Measurements from the supplement of paper PMC10307832.

Tests used:
Assay in all cases: relative viability (nuclei count vs DMSO), 5 days (fraction); higher = more cells survive
[1] = system: NCI-H838
Summary of the method: (§1)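 Relative viability was taken as the ratio of nuclei in treated wells to nuclei in vehicle wells. Lung cancer cell lines in 1536-well plates received compounds by pin tool one day after seeding, either one drug alone or a fixed anchor-drug dose plus five library-drug doses (not always all listed) in √10 steps. Nuclei were counted on 4× images after 5 days of treatment, and values are medians of duplicate plates.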

[2] = system: NCI-H2126
Summary of the method: as §1

[3] = system: NCI-H1355
Summary of the method: as §1

[4] = system: NCI-H1915
Summary of the method: as §1

[5] = system: HOP-62
Summary of the method: as §1

[6] = system: NCI-H322M
Summary of the method: as §1

[7] = system: SW 1573
Summary of the method: as §1

[8] = system: SK-LU-1
Summary of the method: as §1

[9] = system: CAL-12T
Summary of the method: as §1

[10] = system: NCI-H1395
Summary of the method: as §1

[11] = system: 201T
Summary of the method: as §1

[12] = system: NCI-H3122
Summary of the method: as §1

[13] = system: BEN
Summary of the method: as §1

[14] = system: HCC-78
Summary of the method: as §1

[15] = system: NCI-H2347
Summary of the method: as §1

[16] = system: NCI-H1793
Summary of the method: as §1

[17] = system: NCI-H1651
Summary of the method: as §1

[18] = system: NCI-H1944
Summary of the method: as §1

[19] = system: LOU-NH91
Summary of the method: as §1

[20] = system: NCI-H441
Summary of the method: as §1

[21] = system: LCLC-97TM1
Summary of the method: as §1

CN1CCN(CCOc2cc(OC3CCOCC3)c3c(Nc4c(Cl)ccc5c4OCO5)ncnc3c2)CC1 [Saracatinib] + CC1(C)CCC(c2ccc(Cl)cc2)=C(CN2CCN(c3ccc(C(=O)NS(=O)(=O)c4ccc(N[C@H](CCN5CCOCC5)CSc5ccccc5)c(S(=O)(=O)C(F)(F)F)c4)cc3)CC2)C1 [Navitoclax] (partner 0.5 µM)
relative viability ([1]; first compound 0.02 µM): 1.15
relative viability ([1]; first compound 0.2 µM): 1.02
relative viability ([1]; first compound 0.6325 µM): 1.03
relative viability ([1]; first compound 2 µM): 0.918
relative viability ([2]; first compound 0.02 µM): 0.876
relative viability ([2]; first compound 0.2 µM): 0.747
relative viability ([2]; first compound 0.6325 µM): 0.887
relative viability ([2]; first compound 2 µM): 0.684
relative viability ([3]; first compound 0.02 µM): 0.988
relative viability ([3]; first compound 0.2 µM): 0.895
relative viability ([3]; first compound 0.6325 µM): 0.928
relative viability ([3]; first compound 2 µM): 0.901
relative viability ([4]; first compound 0.02 µM): 0.813
relative viability ([4]; first compound 0.2 µM): 0.456
relative viability ([4]; first compound 0.6325 µM): 0.8
relative viability ([4]; first compound 2 µM): 0.757
relative viability ([5]; first compound 0.02 µM): 1.01
relative viability ([5]; first compound 0.2 µM): 0.804
relative viability ([5]; first compound 0.6325 µM): 1.25
relative viability ([5]; first compound 2 µM): 1.1
relative viability ([6]; first compound 0.02 µM): 1.28
relative viability ([6]; first compound 0.2 µM): 1.29
relative viability ([6]; first compound 0.6325 µM): 1.31
relative viability ([6]; first compound 2 µM): 1.13
relative viability ([7]; first compound 0.02 µM): 0.958
relative viability ([7]; first compound 0.2 µM): 0.969
relative viability ([7]; first compound 0.6325 µM): 0.919
relative viability ([7]; first compound 2 µM): 0.838
relative viability ([8]; first compound 0.02 µM): 0.752
relative viability ([8]; first compound 0.2 µM): 0.535
relative viability ([8]; first compound 0.6325 µM): 0.527
relative viability ([8]; first compound 2 µM): 0.412
relative viability ([9]; first compound 0.02 µM): 1.17
relative viability ([9]; first compound 0.2 µM): 1.29
relative viability ([9]; first compound 0.6325 µM): 1.42
relative viability ([9]; first compound 2 µM): 1.27
relative viability ([10]; first compound 0.02 µM): 1.37
relative viability ([10]; first compound 0.2 µM): 0.902
relative viability ([10]; first compound 0.6325 µM): 1.09
relative viability ([10]; first compound 2 µM): 1.08
relative viability ([11]; first compound 0.02 µM): 1.29
relative viability ([11]; first compound 0.2 µM): 1.16
relative viability ([11]; first compound 0.6325 µM): 1.09
relative viability ([11]; first compound 2 µM): 1.1
relative viability ([12]; first compound 0.02 µM): 1.02
relative viability ([12]; first compound 0.6325 µM): 0.942
relative viability ([12]; first compound 2 µM): 0.838
relative viability ([13]; first compound 0.02 µM): 0.0867
relative viability ([13]; first compound 0.2 µM): 0.0774
relative viability ([13]; first compound 0.6325 µM): 0.0714
relative viability ([13]; first compound 2 µM): 0.0584
relative viability ([14]; first compound 0.02 µM): 0.733
relative viability ([14]; first compound 0.2 µM): 0.779
relative viability ([14]; first compound 0.6325 µM): 1.08
relative viability ([14]; first compound 2 µM): 0.875
relative viability ([15]; first compound 0.02 µM): 0.725
relative viability ([15]; first compound 0.2 µM): 0.686
relative viability ([15]; first compound 0.6325 µM): 0.862
relative viability ([15]; first compound 2 µM): 0.599
relative viability ([16]; first compound 0.02 µM): 0.456
relative viability ([16]; first compound 0.2 µM): 0.402
relative viability ([16]; first compound 0.6325 µM): 0.401
relative viability ([16]; first compound 2 µM): 0.201
relative viability ([17]; first compound 0.02 µM): 1.06
relative viability ([17]; first compound 0.2 µM): 0.681
relative viability ([17]; first compound 0.6325 µM): 0.998
relative viability ([17]; first compound 2 µM): 1.03
relative viability ([18]; first compound 0.02 µM): 1.14
relative viability ([18]; first compound 0.6325 µM): 0.974
relative viability ([18]; first compound 2 µM): 0.718
relative viability ([19]; first compound 0.02 µM): 0.678
relative viability ([19]; first compound 0.2 µM): 0.418
relative viability ([19]; first compound 0.6325 µM): 0.405
relative viability ([19]; first compound 2 µM): 0.361
relative viability ([20]; first compound 0.02 µM): 0.566
relative viability ([20]; first compound 0.2 µM): 0.681
relative viability ([20]; first compound 0.6325 µM): 0.832
relative viability ([20]; first compound 2 µM): 0.624
relative viability ([21]; first compound 0.02 µM): 0.422
relative viability ([21]; first compound 0.2 µM): 0.356
relative viability ([21]; first compound 0.6325 µM): 0.501
relative viability ([21]; first compound 2 µM): 0.46

Cc1csc(=NC2CCCCC2)n1/N=C/c1ccc(O)c(O)c1O [MIM1] + CC1(C)CCC(c2ccc(Cl)cc2)=C(CN2CCN(c3ccc(C(=O)NS(=O)(=O)c4ccc(N[C@H](CCN5CCOCC5)CSc5ccccc5)c(S(=O)(=O)C(F)(F)F)c4)cc3)CC2)C1 [Navitoclax] (partner 0.5 µM)
relative viability ([1]; first compound 0.2 µM): 1.12
relative viability ([1]; first compound 0.6325 µM): 1.3
relative viability ([1]; first compound 2 µM): 0.994
relative viability ([1]; first compound 6.325 µM): 0.902
relative viability ([1]; first compound 20 µM): 0.501
relative viability ([2]; first compound 0.2 µM): 0.898
relative viability ([2]; first compound 0.6325 µM): 0.854
relative viability ([2]; first compound 2 µM): 0.974
relative viability ([2]; first compound 6.325 µM): 0.831
relative viability ([2]; first compound 20 µM): 0.812
relative viability ([3]; first compound 0.2 µM): 0.977
relative viability ([3]; first compound 0.6325 µM): 1.03
relative viability ([3]; first compound 2 µM): 1.07
relative viability ([3]; first compound 6.325 µM): 0.793
relative viability ([3]; first compound 20 µM): 0.95
relative viability ([4]; first compound 0.2 µM): 0.791
relative viability ([4]; first compound 0.6325 µM): 0.696
relative viability ([4]; first compound 2 µM): 0.781
relative viability ([4]; first compound 6.325 µM): 0.62
relative viability ([4]; first compound 20 µM): 0.656
relative viability ([5]; first compound 0.2 µM): 1.11
relative viability ([5]; first compound 0.6325 µM): 1.11
relative viability ([5]; first compound 2 µM): 0.525
relative viability ([5]; first compound 6.325 µM): 0.86
relative viability ([5]; first compound 20 µM): 0.559
relative viability ([6]; first compound 0.2 µM): 1.13
relative viability ([6]; first compound 0.6325 µM): 1.29
relative viability ([6]; first compound 2 µM): 1.31
relative viability ([6]; first compound 6.325 µM): 1.13
relative viability ([6]; first compound 20 µM): 1.37
relative viability ([7]; first compound 0.2 µM): 0.973
relative viability ([7]; first compound 0.6325 µM): 0.967
relative viability ([7]; first compound 2 µM): 1.08
relative viability ([7]; first compound 6.325 µM): 0.909
relative viability ([7]; first compound 20 µM): 0.549
relative viability ([8]; first compound 0.2 µM): 0.708
relative viability ([8]; first compound 0.6325 µM): 0.78
relative viability ([8]; first compound 2 µM): 0.957
relative viability ([8]; first compound 6.325 µM): 0.824
relative viability ([8]; first compound 20 µM): 0.841
relative viability ([9]; first compound 0.2 µM): 1.13
relative viability ([9]; first compound 0.6325 µM): 1.36
relative viability ([9]; first compound 2 µM): 1.15
relative viability ([9]; first compound 6.325 µM): 0.731
relative viability ([9]; first compound 20 µM): 0.945
relative viability ([10]; first compound 0.2 µM): 1.06
relative viability ([10]; first compound 0.6325 µM): 1.1
relative viability ([10]; first compound 2 µM): 1.63
relative viability ([10]; first compound 6.325 µM): 0.646
relative viability ([10]; first compound 20 µM): 0.425
relative viability ([11]; first compound 0.2 µM): 1.2
relative viability ([11]; first compound 0.6325 µM): 1.21
relative viability ([11]; first compound 2 µM): 1.24
relative viability ([11]; first compound 6.325 µM): 1.19
relative viability ([11]; first compound 20 µM): 1.26
relative viability ([12]; first compound 0.2 µM): 1.06
relative viability ([12]; first compound 0.6325 µM): 1.09
relative viability ([12]; first compound 2 µM): 1.1
relative viability ([12]; first compound 6.325 µM): 0.761
relative viability ([12]; first compound 20 µM): 0.426
relative viability ([13]; first compound 0.2 µM): 0.0709
relative viability ([13]; first compound 0.6325 µM): 0.0746
relative viability ([13]; first compound 2 µM): 0.0631
relative viability ([13]; first compound 6.325 µM): 0.0911
relative viability ([13]; first compound 20 µM): 0.0543
relative viability ([14]; first compound 0.2 µM): 0.899
relative viability ([14]; first compound 0.6325 µM): 0.731
relative viability ([14]; first compound 2 µM): 0.668
relative viability ([14]; first compound 6.325 µM): 0.562
relative viability ([14]; first compound 20 µM): 0.739
relative viability ([15]; first compound 0.2 µM): 0.661
relative viability ([15]; first compound 0.6325 µM): 0.776
relative viability ([15]; first compound 2 µM): 0.812
relative viability ([15]; first compound 6.325 µM): 0.544
relative viability ([15]; first compound 20 µM): 0.408
relative viability ([16]; first compound 0.2 µM): 0.438
relative viability ([16]; first compound 0.6325 µM): 0.546
relative viability ([16]; first compound 2 µM): 0.436
relative viability ([16]; first compound 6.325 µM): 0.475
relative viability ([16]; first compound 20 µM): 0.47
relative viability ([17]; first compound 0.2 µM): 1.09
relative viability ([17]; first compound 0.6325 µM): 1.1
relative viability ([17]; first compound 2 µM): 1.03
relative viability ([17]; first compound 6.325 µM): 0.875
relative viability ([17]; first compound 20 µM): 0.869
relative viability ([18]; first compound 0.2 µM): 0.985
relative viability ([18]; first compound 0.6325 µM): 1.04
relative viability ([18]; first compound 2 µM): 0.845
relative viability ([18]; first compound 6.325 µM): 0.938
relative viability ([18]; first compound 20 µM): 1.11
relative viability ([19]; first compound 0.2 µM): 0.588
relative viability ([19]; first compound 0.6325 µM): 0.69
relative viability ([19]; first compound 2 µM): 0.532
relative viability ([19]; first compound 6.325 µM): 0.492
relative viability ([19]; first compound 20 µM): 0.313
relative viability ([20]; first compound 0.2 µM): 0.58
relative viability ([20]; first compound 0.6325 µM): 0.912
relative viability ([20]; first compound 2 µM): 0.706
relative viability ([20]; first compound 6.325 µM): 0.577
relative viability ([20]; first compound 20 µM): 0.24
relative viability ([21]; first compound 0.2 µM): 0.567
relative viability ([21]; first compound 0.6325 µM): 0.398
relative viability ([21]; first compound 2 µM): 0.397
relative viability ([21]; first compound 6.325 µM): 0.48
relative viability ([21]; first compound 20 µM): 0.203
